The text below walks through data of US6906095B2, “Indolylalkylidenehydrazine-carboximidamide derivatives as 5-hydroxytryptamine-6 ligands” (Wyeth, priority 2002, dated 2005).

The target of the assay is T1, human cloned 5-HT6 receptors (Homo sapiens, UniProt P50406).
T1 construct: expressed in transfected cells; host or cells: Hela cells
Nature of the assay: 5-HT6 binding affinity, [3H]-LSD displacement in membranes of Hela cells. As to conditions: [3H]-LSD 3.0 nM; for inhibition at 1 µM: test compound dose 1000 nM, read-out: % Inhibition.

T1 sequence (P50406 whole entry): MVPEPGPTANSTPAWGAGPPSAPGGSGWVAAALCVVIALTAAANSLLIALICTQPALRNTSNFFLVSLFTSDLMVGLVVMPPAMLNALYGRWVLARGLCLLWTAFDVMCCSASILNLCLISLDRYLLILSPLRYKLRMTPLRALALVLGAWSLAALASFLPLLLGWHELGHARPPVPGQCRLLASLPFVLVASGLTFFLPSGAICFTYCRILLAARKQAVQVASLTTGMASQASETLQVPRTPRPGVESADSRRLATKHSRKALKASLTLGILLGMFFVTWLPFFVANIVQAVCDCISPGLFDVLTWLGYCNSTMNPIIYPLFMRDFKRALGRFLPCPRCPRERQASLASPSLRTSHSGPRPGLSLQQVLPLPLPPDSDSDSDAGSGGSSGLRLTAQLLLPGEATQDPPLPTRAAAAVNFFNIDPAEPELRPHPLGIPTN

What is called inhibition is how much of the control response was suppressed. Consider `N=C(N)NN=Cc1cn(S(=O)(=O)c2ccccc2)c2ccc(OCc3ccccc3)cc12` [Example 21, 2-{[5-(benzyloxy)-1-(phenylsulfonyl)-1H-indol-3-yl]methylidene}hydrazinecarboximidamide], for which the inhibition at 1 µM is 57.4%.
As for `CC(=NNC(=N)N)c1cn(S(=O)(=O)c2ccc3ccccc3c2)c2cc(F)ccc12` [Example 109, 2-{1-[6-fluoro-1-(2-naphthylsulfonyl)-1H-indol-3-yl]ethylidene}hydrazinecarboximidamide], the inhibition at 1 µM came out at 67.8%.
In turn, `CC(=NNC(=N)N)c1cn(S(=O)(=O)c2c(C)noc2C)c2ccccc12` [Example 43, 2-(1-{1-[(3,5-dimethylisoxazol-4-yl)sulfonyl]-1H-indol-3-yl}ethylidene)hydrazinecarboximidamide] gave an inhibition at 0.1 µM (test compound dose 100 nM) of 68.9%.
In the case of `CC(C)C(=NNC(=N)N)c1cn(S(=O)(=O)c2ccccc2)c2ccccc12` [Example 5, 2-{2-methyl-1-[1-(phenylsulfonyl)-1H-indol-3-yl]propylidene}hydrazinecarboximidamide], the inhibition at 1 µM stood at 91.5%.
